Measured values published in patent publication US20100119599A1 (ARCHER PHARMACEUTICALS, INC., priority 2006, published 2010).

How the values were obtained:
Aβ1-40 = experiment: Measurement of Aβ1-40 in culture medium of 7W WT APP751 CHO cells by ELISA; format: cell-based, Chinese hamster; settings: for Aβ1-40 (% of control): CHO cells that overexpress APP751, zero = below the detection limit of the assay; for activity at 5 µM: Cricetulus griseus, Table 1, 5 μM test compound, CHO cells stably transfected with human APP751, culture medium, ELISA, control DMSO, 0 = no detectable amount
Aβ1-42 = experiment: Measurement of Aβ1-42 in culture medium of 7W WT APP751 CHO cells by ELISA; format: cell-based, Chinese hamster; settings: for Aβ1-42 (% of control): CHO cells that overexpress APP751, zero = below the detection limit of the assay; for activity at 5 µM: Cricetulus griseus, Table 1, 5 μM test compound, CHO cells stably transfected with human APP751, culture medium, ELISA, control DMSO, 0 = no detectable amount, read-out: Aβ1-42 (% of control)
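Further: 5 µM test compound but RI-coded compounds at 10 µM for 24 hours.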

Row | Structure (SMILES) | Aβ1-40 (% of control) (Aβ1-40) | Aβ1-42 (% of control) (Aβ1-42) | activity at 5 µM (Aβ1-40) | activity at 5 µM (Aβ1-42)
1 | CCOC(=O)C1=C(N)n2c(s/c(=C/c3ccccc3Cl)c2=O)=C(C#N)C1c1ccccc1Cl (centres unmarked) [ST215651, ethyl 5-amino-7-(2-chlorophenyl)-2-[(2-chlorophenyl)methylene]-8-cyano-3-oxo-4,7-dihydro-1,3-thiazolidino[3,2-a]pyridine-6-carboxylate] | 80.92 % of control | 42.3 % of control |  | 
2 | CC1=C(C(=O)Nc2ccccc2)C(c2cccs2)C(C#N)=C(SCC(=O)NCc2ccc(Br)cc2)N1 (centres unmarked) [RI_20] | 45.6 % of control | 41.9 % of control |  | 
3 | CC1=C(C(=O)Nc2ccccc2)C(c2ccsc2)C(C#N)=C(SCC(=O)Nc2ccc(C)c(Cl)c2)N1 (centres unmarked) [RI_67] | 42.6 % of control | 51.8 % of control |  | 
4 | CC1=C(C(=O)OCCc2ccccc2)C(c2ccc(C)cc2)C2=C(CCCC2=O)N1 (centres unmarked) [ST015076, 2-phenylethyl 2-methyl-4-(4-methylphenyl)-5-oxo-1,4,6,7,8-pentahydroquinoline-3-carboxylate] |  |  | 58.9% | 98.6%
5 | C=CCOC(=O)C1=C(C)NC2=C(C(=O)CCC2)C1c1cccc(OC)c1 (centres unmarked) [ST013199, prop-2-enyl 4-(3-methoxyphenyl)-2-methyl-5-oxo-1,4,6,7,8-pentahydroquinoline-3-carboxylate] |  |  | 68.5% | 86.7%
6 | CC1=C(C(=O)Nc2ccccc2)C(c2cccs2)C(C#N)=C(SCC(=O)NCc2ccccc2)N1 (centres unmarked) [RI_22] | 60.9 % of control | 47.6 % of control |  | 
7 | Cc1ccc(/C=c2/sc3n(c2=O)C(N)=C(C#N)C(c2ccc(C)cc2)C=3C#N)cc1 (centres unmarked) [ST215709, 5-amino-7-(4-methylphenyl)-2-[(4-methylphenyl)methylene]-3-oxo-4,7-dihydro-1,3-thiazolidino[3,2-a]pyridine-6,8-dicarbonitrile] | 55.91 % of control | 78.43 % of control |  | 
8 | CC1=C(C(=O)OCCOc2ccccc2)C(c2coc3ccc(C)cc3c2=O)C2=C(CC(C)(C)CC2=O)N1 (centres unmarked) [ST052392, 2-phenoxyethyl 2,7,7-trimethyl-4-(6-methyl-4-oxochromen-3-yl)-5-oxo-1,4,6,7,8-pentahydroquinoline-3-carboxylate] |  |  | 28.1% | 11.9%
9 | Cc1c(Cl)cccc1NC(=O)CSC1=C(C#N)C(c2cccs2)C2=C(CC(C)(C)CC2=O)N1 (centres unmarked) [ST051161, N-(3-chloro-2-methylphenyl)-2-(3-cyano-7,7-dimethyl-5-oxo-4-(2-thienyl)(2-1,4,6,7,8-pentahydroquinolylthio))acetamide] |  |  | 13% | 25.4%
10 | CC1=C(C(=O)OCCc2ccccc2)C(c2cccc(Cl)c2Cl)C2=C(CCCC2=O)N1 (centres unmarked) [ST015062, 2-phenylethyl 4-(2,3-dichlorophenyl)-2-methyl-5-oxo-1,4,6,7,8-pentahydroquinoline-3-carboxylate] |  |  | 30.6% | 20.8%
11 | CC1=C(C(=O)Nc2ccccc2)C(c2cccs2)C(C#N)=C(SCC(=O)Nc2cccc(Cl)c2C)N1 (centres unmarked) [RI_38] | 62.5 % of control | 103.4 % of control |  | 
12 | COc1ccc(C2CC(=O)C3=C(C2)NC(C)=C(C(=O)OC(C)C)C3c2ccc(OCc3ccccc3)cc2)cc1 (centres unmarked) [ST016961, methylethyl 7-(4-methoxyphenyl)-2-methyl-5-oxo-4-[4-(phenylmethoxy)phenyl]-1,4,6,7,8-pentahydroquinoline-3-carboxylate] |  |  | 41.8% | 89.5%
13 | CCc1cccc(NC(=O)CSC2=C(C#N)C(c3ccc(-c4ccccn4)s3)C(C(=O)Nc3ccccc3)=C(C)N2)c1 (centres unmarked) [RI_86] | 32.8 % of control | 21.8 % of control |  | 
14 | CCOc1cc(/C=c2\sc3n(c2=O)C(N)=C(C#N)C(c2ccc(O)c(OCC)c2)C=3C#N)ccc1O (centres unmarked) [ST025033, 5-amino-7-(3-ethoxy-4-hydroxyphenyl)-2-[(3-ethoxy-4-hydroxyphenyl)methylene]-3-oxo-4,7-dihydro-1,3-thiazolidino[3,2-a]pyridine-6,8-dicarbonitrile] | 53.66 % of control | 57.6 % of control |  | 
15 | COC(=O)C1=C(C)NC2=C(C(=O)CC(c3ccccc3Cl)C2)C1c1cccc([N+](=O)[O-])c1 (centres unmarked) [ST015070, methyl 7-(2-chlorophenyl)-2-methyl-4-(3-nitrophenyl)-5-oxo-1,4,6,7,8-pentahydroquinoline-3-carboxylate] |  |  | 65.4% | 97%
16 | CCCOC(=O)C1=C(C)NC2=C(C(=O)CCC2)C1c1ccccc1OC(C)C (centres unmarked) [ST013322, propyl 2-methyl-4-[2-(methylethoxy)phenyl]-5-oxo-1,4,6,7,8-pentahydroquinoline-3-carboxylate] |  |  | 57.6% | 99.7%
17 | COC(=O)C1=C(C)NC2=C(C(=O)CC(C)(C)C2)C1c1cccnc1 (centres unmarked) [ST013059, methyl 2,7,7-trimethyl-5-oxo-4-(3-pyridyl)-1,4,6,7,8-pentahydroquinoline-3-carboxylate] |  |  | 26.7% | 76.1%
18 | CC1=C(C(=O)OC2CCCCC2)C(c2ccc(C)cc2)C2=C(CC(c3ccccc3)CC2=O)N1 (centres unmarked) [ST013438, cyclohexyl 2-methyl-4-(4-methylphenyl)-5-oxo-7-phenyl-1,4,6,7,8-pentahydroquinoline-3-carboxylate] |  |  | 31.5% | 93.5%
19 | CC1=C(C(=O)Nc2ccc(Cl)cc2)C(c2ccsc2)C(C#N)=C(SCC(=O)Nc2cccc(C)c2)N1 (centres unmarked) [RI_14] | 56.3 % of control | 64.1 % of control |  | 
20 | Cn1cccc1/C=c1/sc2n(c1=O)C(N)=C(C#N)C(c1cccn1C)C=2C#N (centres unmarked) [ST003361, 5-amino-7-(1-methylpyrrol-2-yl)-2-[(1-methylpyrrol-2-yl)methylene]-3-oxo-4,7-dihydro-1,3-thiazolidino[3,2-a]pyridine-6,8-dicarbonitrile] | 43.9 % of control | 90.24 % of control |  | 
21 | CCN(CC)c1ccc(C2C(C(=O)OC(C)C)=C(C)NC3=C2C(=O)CC(c2ccccc2)C3)cc1 (centres unmarked) [ST014875, methylethyl 4-[4-(diethylamino)phenyl]-2-methyl-5-oxo-7-phenyl-1,4,6,7,8-pentahydroquinoline-3-carboxylate] |  |  | 54.2% | 95.7%
22 | CCOC(=O)C1=C(C)NC(C)=C(C(=O)OC)C1c1cc(Cl)cc(Cl)c1OC (centres unmarked) [ST211424, methyl 4-(3,5-dichloro-2-methoxyphenyl)-5-(ethoxycarbonyl)-2,6-dimethyl-1,4-dihydropyridine-3-carboxylate] | 62.46 % of control | 91.29 % of control |  | 
23 | CC1=C(C(=O)OCCOc2ccccc2)C(c2ccccc2OC(C)C)C2=C(CCCC2=O)N1 (centres unmarked) [ST014919, 2-phenoxyethyl 2-methyl-4-[2-(methylethoxy)phenyl]-5-oxo-1,4,6,7,8-pentahydroquinoline-3-carboxylate] |  |  | 63.4% | 85.1%
24 | CC1=C(C(=O)Nc2ccc(Cl)cc2)C(c2ccccc2)C(C#N)=C(SCC(=O)Nc2ccc(C(C)C)cc2)N1 (centres unmarked) [RI_54] | 45.89 % of control | 52.6 % of control |  | 
25 | CC1=C(C(=O)Nc2ccccc2)C(c2cccs2)C(C#N)=C(SCC(=O)Nc2ccc(Oc3ccccc3)cc2)N1 (centres unmarked) [RI_8] | 46.1 % of control | 26.4 % of control |  | 
